Test results as given in patent publication US10059655B2, “Lipids and lipid compositions for the delivery of active agents” (priority 2013, dated 2018).

Tests used:
[1] = Measurement of siRNA encapsulation (SYBR Gold fluorescence); assay type: physicochemical; conditions: for % Encap.: FVII siRNA; for % encapsulation siRNA FVII: FVII siRNA in LNP
Method: The lipid nanoparticles (LNPs) were formed by mixing equal volumes of lipids dissolved in alcohol with siRNA dissolved in a citrate buffer by an impinging jet process. The lipid solution contains a cationic lipid compound of the invention, a helper lipid (cholesterol), an optional neutral lipid (DSPC) and a stealth lipid (S010, S024, S027, or S031) at a concentration of 8-16 mg/mL with a target of 12 mg/mL in an alcohol. The siRNA to total lipid ratio is approximately 0.05 (wt/wt). Where a LNP formulation contains four lipid components, the molar ratios of the lipids ranges from 20 to 70 mole percent for the cationic lipid with a target of 40-60, the mole percent of helper lipid ranges from 20 to 70 with a target of 30 to 50, the mole percent of neutral lipid ranges from 0-30, the mole percent of PEG lipid has a range from 1 to 6 with a target of 2 to 5. The concentration of siRNA solution ranges from 0.7 to 1.0 mg/mL with a target of 0.8 to 0.9 mg/mL in a sodium citrate: sodium chloride buffer pH 4-6, with a target of 4.5-5.5. The LNPs are formed by mixing equal volumes of lipid solution in ethanol with siRNA dissolved in a citrate buffer by an impinging jet process through a mixing device with ID ranging from 0.25 to 2.0 mm at a flow rate from 10 to 640 mL/min. The mixed LNP solution is held at room temperature for 0-24 hrs prior to a dilution step. The solution is then concentrated and diafiltered with suitable buffer by ultrafiltration process using membranes with a MW cutoff from 30 to 500 KD. The final product is sterile filtered and stored at 4° C.
SYBR Gold flourescence reagent is used for the determination of siRNA encapsulation in the DLP's. DLP's with and without triton x-100 are used to determine the free siRNA and total siRNA amounts. DLP's samples with and without triton X-100 were excited at 485 nm and flourescence emission is measured at 530 nm. Encapsulation efficiency is calculated based on the following formula: Encapsulation efficiency: [(free siRNA concentration−total siRNA concentration)/(total siRNA concentration)]×100% Encapsulation Data

[2] = tested on: RSV F protein; assay: RSV immunogenicity: F-specific IgG titers after IM vaccination with liposome-formulated self-replicating RNA; assay type: in vivo; conditions: IM days 0 and 21, BALB/c mice, two weeks after two immunizations
[3] = tested on: mEPO; assay: Mouse EPO ELISA after IV injection of encapsulated mEPO mRNA; assay type: in vivo; conditions: 0.2 mpk, ob/ob mice, @ 24 h
Method: A rat anti-mouse Erythropoietin antibody is coated on 384-well white microtiter plates overnight, then blocked for assay. Then, plasma samples are diluted in a casein-based sample diluent and incubated on the plate with buffer controls and mouse EPO standards. The plate is then washed to remove unbound material. A biotinylated rat anti-mouse Erythropoietin antibody is then added to the plate to detect mouse EPO bound by the capture antibody. The plate is washed again and a streptavidin-conjugated horseradish peroxidase reagent is incubated on the plate. A third wash step is performed and a chemiluminescent reagent is added to the plate and immediately read by a capable plate reader using all wavelengths and a 50 millisecond integration time. Unknown samples are interpolated off the mouse EPO standard curve.

CCCCC/C=C\C/C=C\CCCCCCCC(=O)OCC(COC(=O)CCC(OCCCCCCCC)OCCCCCCCC)COC(=O)OCCCN(CC)CC (stereo not drawn) [Example 13, (9Z,12Z)-3-((4,4-bis(octyloxy)butanoyl)oxy)-2-((((3-(diethylamino)propoxy)carbonyl)oxy)methyl)propyl octadeca-9,12-dienoate]
% Encap. [1]: 88.1%
% encapsulation siRNA FVII [1]: 88.1%

CCCCC/C=C\C/C=C\CCCCCCCC(=O)OCC(COC(=O)CCC(OCCCCCCCC)OCCCCCCCC)COC(=O)OCC1CCCN(CC)C1 (stereo not drawn) [Example 15, (9Z,12Z)-3-((4,4-bis(octyloxy)butanoyl)oxy)-2-(((((1-ethylpiperidin-3-yl)methoxy)carbonyl)oxy)methyl)propyl octadeca-9,12-dienoate]
Immunogenicity (2wp2; log10 IgG titers) ([2]; 0.1 ng replicon RNA): 4.45 log10 IgG titers
Immunogenicity (2wp2; log10 IgG titers) ([2]; 1 ng replicon RNA): 4.63 log10 IgG titers

CCCCC/C=C\C/C=C\CCCCCCCC(=O)OCC(COC(=O)CCCCCCC/C=C\C/C=C\CCCCC)COC(=O)C1(C)CCN(C)C1 (stereo not drawn) [Example 1, (9Z,9′Z,12Z,12′Z)-2-(((1,3-dimethylpyrrolidine-3-carbonyl)oxy)methyl)propane-1,3-diyl bis(octadeca-9,12-dienoate)]
% Encap. [1]: 85.1%
% encapsulation siRNA FVII [1]: 85.1%
Immunogenicity (2wp2; log10 IgG titers) ([2]; 0.1 ng replicon RNA): 3.99 log10 IgG titers
Immunogenicity (2wp2; log10 IgG titers) ([2]; 1 ng replicon RNA): 4.08 log10 IgG titers
Expression of protein following IV injection of encapsulated mRNA: mEPO [3]: 22.5 ng/mL
